Consider 61 compounds from US11198695B2, “Fused ring derivative having MGAT-2 inhibitory activity” (Shionogi & Co., Ltd., priority 2017, dated 2021).

The target in the first assay is recombinant human MGAT2 (Homo sapiens (Human), UniProt Q3SYC2). Put plainly: Measurement of human MGAT2 inhibitory activity. Format: biochemical. The settings on record: read-out: IC50 (concentration exhibiting 50% enzyme inhibition), Table 52. The essentials: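 RapidFire ESI-MS read-out of the diolein/diolein-d5 peak ratio gave % inhibition, with no-enzyme and full-enzyme wells as 100% and 0%. Reactions ran 1 h at room temperature at pH 7.4 (phosphate, 2 mmol/L DTT), using Flag-tagged human MGAT2 membranes from Sf9 cells and a substrate solution of 30 μmol/L 2-oleoylglycerol and 10 μmol/L oleoyl-CoA.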
Chain of recombinant human MGAT2 (Q3SYC2 whole entry): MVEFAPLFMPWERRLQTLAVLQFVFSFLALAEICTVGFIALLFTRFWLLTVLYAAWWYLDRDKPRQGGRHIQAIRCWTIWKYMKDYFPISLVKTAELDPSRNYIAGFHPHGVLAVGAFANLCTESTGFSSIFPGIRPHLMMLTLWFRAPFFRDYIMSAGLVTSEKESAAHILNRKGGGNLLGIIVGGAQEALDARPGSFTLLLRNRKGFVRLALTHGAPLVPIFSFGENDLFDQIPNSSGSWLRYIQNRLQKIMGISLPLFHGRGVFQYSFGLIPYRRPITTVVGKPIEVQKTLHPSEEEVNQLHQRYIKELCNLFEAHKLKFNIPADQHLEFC
For `CS(=O)(=O)NC(=O)c1c2c(nn1CCC1CC1)C[C@]1(CCc3cc(OCC(F)(F)F)ccc31)NC2=O` [Compound I-279], the IC50 worked out at 50.5 nM.
Still for that read-out and setting: under `O=C1N[C@@]2(CCc3cc(OCC(F)(F)F)ccc32)Cc2nn(CCC3CC3)c(-c3nn[nH]n3)c21` [Compound I-280] stands 48 nM.
In the case of `CS(=O)(=O)CC(=O)Nc1c2c(nn1CCC1CC1)C[C@]1(CCc3cc(CN4CC(F)(F)C4)ccc31)NC2=O` [Compound I-281], the IC50 was found to be 72 nM.
Turning to `CS(=O)(=O)CC(=O)Nc1c2c(nn1-c1ccc(C#N)cn1)C[C@]1(CCc3cc(F)cc(F)c31)NC2=O` [Compound I-284], the IC50 is 9.35 nM.
The same measure, in the same setting: under `CS(=O)(=O)CC(=O)Nc1c2c(nn1-c1ccc(C(F)(F)F)cn1)C[C@]1(CCc3cc(F)cc(F)c31)NC2=O` [Compound I-285] stands 3.5 nM.

Still in this assay, the particulars now being: read-out: IC50 (concentration exhibiting 50% enzyme inhibition), Table 53.
For the compound `CS(=O)(=O)CC(=O)Nc1c2c(nn1CCC1CC1)C1(Cc3ccc(OCC(F)(F)F)cc3C1)NC2=O` (stereo not shown) [II-1], the IC50 turned out to be 46 nM.
For `CS(=O)(=O)CC(=O)Nc1c2c(nn1-c1ccc(C#N)cn1)C1(Cc3cc(F)c(F)cc3C1)NC2=O` [II-4], the IC50 was found to be 32 nM.
The same measure, in the same setting: under `Cc1cccc(-n2nc3c(c2NC(=O)CS(C)(=O)=O)C(=O)N[C@@]2(CCOc4cc(OCC(F)(F)F)ccc42)C3)c1` [II-5] stands 4.6 nM.
On to `COc1ccc(-n2nc3c(c2NC(=O)CS(C)(=O)=O)C(=O)N[C@@]2(CCOc4cc(OCC(F)(F)F)ccc42)C3)cc1` [II-6], for which the IC50 turned out to be 19 nM.
Same read-out and setting: in the case of `CS(=O)(=O)CC(=O)Nc1c2c(nn1-c1ccncn1)C[C@]1(CCOc3cc(OCC(F)(F)F)ccc31)NC2=O` [II-7] it was 20 nM; in that of `CS(=O)(=O)CC(=O)Nc1c2c(nn1CCC1CC1)C[C@@]1(CCOc3cc(OCC(F)(F)F)ccc31)NC2=O` [II-9], 9.5 nM.
The same measure, in the same setting: in the case of `CS(=O)(=O)CC(=O)Nc1c2c(nn1C1CC3(COC3)C1)C[C@]1(CCc3cc(OCC(F)(F)F)ccc31)NC2=O` [II-11] it was 64 nM; in that of `CS(=O)(=O)CC(=O)Nc1c2c(nn1CC1CC(F)(F)C1)C[C@]1(CCc3cc(OCC(F)(F)F)ccc31)NC2=O` [II-12], 35 nM; in that of `CS(=O)(=O)CC(=O)Nc1c2c(nn1CCc1ccccc1F)C[C@]1(CCc3cc(OCC(F)(F)F)ccc31)NC2=O` [II-13], 27 nM.
Consider `CS(=O)(=O)CC(=O)Nc1c2c(nn1C1CCCCC1)C[C@]1(CCOc3cc(OCC(F)(F)F)ccc31)NC2=O` [II-15], for which the IC50 was 12 nM.
Same read-out and setting: under `CS(=O)(=O)CC(=O)Nc1c2c(nn1-c1ccc(C#N)cn1)CC1(CN(Cc3ccc(C(F)(F)F)cc3)C1)NC2=O` [II-16] stands 28 nM.
Take `CS(=O)(=O)CC(=O)Nc1c2c(nn1-c1ccc(C#N)cn1)C[C@](c1ccc(OCC(F)(F)F)cc1)(C(F)(F)F)NC2=O` [II-17]: the IC50 was found to be 38 nM.
Still for that read-out and setting: in the case of `CS(=O)(=O)CC(=O)Nc1c2c(nn1CCOCC(F)F)C[C@@]1(CCc3cc(OCC(F)(F)F)ccc31)NC2=O` [II-18] it was 47 nM; in that of `CS(=O)(=O)CC(=O)Nc1c2c(nn1CCCCC(F)(F)F)C[C@@]1(CCc3cc(OCC(F)(F)F)ccc31)NC2=O` [II-19], 12 nM.
For the compound `CS(=O)(=O)CC(=O)Nc1c2c(nn1CCCOC(F)(F)F)C[C@@]1(CCc3cc(OCC(F)(F)F)ccc31)NC2=O` [II-20], the IC50 is 1.56 nM.
With `COCCCn1nc2c(c1NC(=O)CS(C)(=O)=O)C(=O)N[C@]1(CCc3cc(OCC(F)(F)F)ccc31)C2` [II-21], the IC50 came out at 17 nM.
`CS(=O)(=O)CC(=O)Nc1c2c(nn1CCn1cccn1)C[C@@]1(CCc3cc(OCC(F)(F)F)ccc31)NC2=O` [II-22]: the IC50 is 32 nM.
With `CS(=O)(=O)CC(=O)Nc1c2c(nn1CCc1ccc(F)cc1)C[C@@]1(CCc3cc(OCC(F)(F)F)ccc31)NC2=O` [II-23], the IC50 came to 18 nM.
On the same count and under the same terms, in the case of `CS(=O)(=O)CC(=O)Nc1c2c(nn1CCOCC(F)F)C[C@]1(CCOc3cc(OCC(F)(F)F)ccc31)NC2=O` [II-24] it was 32 nM; in that of `CS(=O)(=O)CC(=O)Nc1c2c(nn1CCCCC(F)(F)F)C[C@]1(CCOc3cc(OCC(F)(F)F)ccc31)NC2=O` [II-25], 7 nM.
On the same count and under the same terms, under `COCCCn1nc2c(c1NC(=O)CS(C)(=O)=O)C(=O)N[C@@]1(CCOc3cc(OCC(F)(F)F)ccc31)C2` [II-26] stands 9.5 nM; under `CS(=O)(=O)CC(=O)Nc1c2c(nn1CCn1cccn1)C[C@]1(CCOc3cc(OCC(F)(F)F)ccc31)NC2=O` [II-27], 21 nM; under `CS(=O)(=O)CC(=O)Nc1c2c(nn1CCc1ccc(F)cc1)C[C@]1(CCOc3cc(OCC(F)(F)F)ccc31)NC2=O` [II-28], 8.7 nM.
The same measure, in the same setting: under `CS(=O)(=O)CC(=O)Nc1c2c(nn1-c1ccc(C#N)cn1)CC1(CN(C(=O)c3ccc(C(F)(F)F)cc3)C1)NC2=O` [II-29] stands 220 nM; under `CS(=O)(=O)CC(=O)Nc1c2c(nn1-c1ccc(C#N)cn1)C[C@]1(CCc3cc(Br)ccc31)NC2=O` [II-30], 8.7 nM; under `CS(=O)(=O)CC(=O)Nc1c2c(nn1CCC1CC1)C[C@@]1(CCc3cc(NC4CC(F)(F)C4)ccc31)NC2=O` [II-32], 17 nM.
With `CS(=O)(=O)CC(=O)Nc1c2c(nn1CCC1CC1)C[C@@]1(CCc3cc(N4CC(c5ccccc5)C4)ccc31)NC2=O` [II-33], the IC50 stood at 3.3 nM.
For the compound `CS(=O)(=O)CC(=O)Nc1c2c(nn1CCC1CC1)C[C@@]1(CCc3cc(N4CC(F)C4)ccc31)NC2=O` [II-34], the IC50 was 41 nM.
Same read-out and setting: under `CS(=O)(=O)CC(=O)Nc1c2c(nn1CCC1CC1)C[C@@]1(CCc3cc(N4CC(n5cccn5)C4)ccc31)NC2=O` [II-35] stands 48 nM.
Regarding `CS(=O)(=O)CC(=O)Nc1c2c(nn1CCC1CC1)C[C@@]1(CCc3cc(N4CC5(CCOCC5)C4)ccc31)NC2=O` [II-36], the IC50 is 53 nM.
The same measure, in the same setting: under `CC1(C)CN(c2ccc3c(c2)CC[C@@]32Cc3nn(CCC4CC4)c(NC(=O)CS(C)(=O)=O)c3C(=O)N2)C1` [II-37] stands 12 nM; under `CSCC(=O)Nc1c2c(nn1CCC1CC1)C[C@]1(CCc3cc(OCC(F)(F)F)ccc31)NC2=O` [II-38], 30 nM; under `C[S+]([O-])CC(=O)Nc1c2c(nn1CCC1CC1)C[C@]1(CCc3cc(OCC(F)(F)F)ccc31)NC2=O` (stereo partly shown) [II-39], 42 nM.
The same measure, in the same setting: under `CS(=O)(=O)CC(=O)Nc1c2c(nn1CCC1CC1)C[C@@]1(CCc3cc(N4CC(C(F)F)C4)ccc31)NC2=O` [II-40] stands 22 nM.
Take `CC(C)OC1CN(c2ccc3c(c2)CC[C@@]32Cc3nn(CCC4CC4)c(NC(=O)CS(C)(=O)=O)c3C(=O)N2)C1` [II-41]: the IC50 is 40 nM.
The same measure, in the same setting: in the case of `CCOC1CN(c2ccc3c(c2)CC[C@@]32Cc3nn(CCC4CC4)c(NC(=O)CS(C)(=O)=O)c3C(=O)N2)C1` [II-42] it was 46 nM; in that of `CS(=O)(=O)CC(=O)Nc1c2c(nn1CCC1CC1)C[C@@]1(CCc3cc(N4CC(Oc5ccccc5)C4)ccc31)NC2=O` [II-43], 3 nM; in that of `COC1(C)CN(c2ccc3c(c2)CC[C@@]32Cc3nn(CCC4CC4)c(NC(=O)CS(C)(=O)=O)c3C(=O)N2)C1` [II-44], 51 nM.
Same read-out and setting: in the case of `COC(=O)CC1CN(c2ccc3c(c2)CC[C@@]32Cc3nn(CCC4CC4)c(NC(=O)CS(C)(=O)=O)c3C(=O)N2)C1` [II-45] it was 98 nM.
In the case of `CS(=O)(=O)CC(=O)Nc1c2c(nn1CCC1CC1)C[C@@]1(CCc3cc(N4CC5(COC5)C4)ccc31)NC2=O` [II-50], the IC50 is 200 nM.
Still for that read-out and setting: under `CC(=O)Nc1c2c(nn1-c1ccc(C#N)cn1)C[C@@]1(CCc3cc(OCC(F)(F)F)ccc31)NC2=O` [II-51] stands 440 nM; under `CS(=O)(=O)CC(=O)Nc1c2c(nn1-c1ccc(C#N)cn1)C[C@]1(CCc3ccccc31)NC2=O` [II-52], 37 nM; under `CS(=O)(=O)CC(=O)Nc1c2c(nn1-c1ccc(C#N)cn1)CC1(CN(c3ccc(C(F)(F)F)cc3F)C1)NC2=O` [II-53], 14 nM.
Take `CS(=O)(=O)CC(=O)Nc1c2c(nn1-c1ccc(C#N)cn1)C[C@]1(CCc3cc(N4CC(F)C4)ccc31)NC2=O` [II-55]: the IC50 was determined as 44 nM.
The same measure, in the same setting: under `COCCCn1nc2c(c1-c1nn[nH]n1)C(=O)N[C@@]1(CCc3cc(OCCCC(F)(F)F)ccc31)C2` [II-56] stands 47 nM.
Still for that read-out and setting: under `COC1CN(c2ccc3c(c2)CC[C@]32Cc3nn(-c4ccc(C#N)cn4)c(NC(=O)CS(C)(=O)=O)c3C(=O)N2)C1` [II-57] stands 66 nM.
Consider `CS(=O)(=O)CC(=O)Nc1c2c(nn1CCC1CC1)CC1(CN(c3ccc(C(F)(F)F)cc3)C1)NC2=O` [II-58], for which the IC50 was determined as 16 nM.
On the same count and under the same terms, under `N#Cc1ccc(-n2nc3c(c2NC(=O)c2cocn2)C(=O)N[C@@]2(CCc4cc(OCC(F)(F)F)ccc42)C3)nc1` [II-59] stands 33 nM; under `O=C(COC(F)(F)F)Nc1c2c(nn1CCC1CC1)C[C@]1(CCc3cc(OCC(F)(F)F)ccc31)NC2=O` [II-60], 93 nM.
On to `Cn1c2c(c(NC(=O)CS(C)(=O)=O)c1-c1ccccc1)C(=O)N[C@@]1(CCc3cc(OCC(F)(F)F)ccc31)C2` [II-61], for which the IC50 was 16.7 nM.
For `N#Cc1ccc(-n2nc3c(c2C(=O)NCC2(CO)COC2)C(=O)N[C@@]2(CCc4cc(OCC(F)(F)F)ccc42)C3)nc1` [II-62], the IC50 turned out to be 15.3 nM.
Turning to `CC(C)(O)C1CN(c2ccc3c(c2)CC[C@@]32Cc3nn(CCC4CC4)c(NC(=O)CS(C)(=O)=O)c3C(=O)N2)C1` [II-63], the IC50 was 300 nM.
Still for that read-out and setting: in the case of `CS(=O)(=O)CC(=O)Nc1c2c(nn1CCCOC(F)(F)F)C[C@]1(CCOc3cc(OCC(F)(F)F)ccc31)NC2=O` [II-64] it was 2.9 nM; in that of `CS(=O)(=O)CC(=O)Nc1c2c(nn1CCCC(F)(F)F)C[C@]1(CCOc3cc(OCC(F)(F)F)ccc31)NC2=O` [II-65], 1.9 nM; in that of `CS(=O)(=O)CC(=O)Nc1c2c(nn1CCC1CC1)C[C@@]1(CCc3cc(CCC(F)(F)F)ccc31)NC2=O` [II-66], 2.5 nM.
Still for that read-out and setting: under `CS(=O)(=O)CC(=O)Nc1c2c(nn1-c1ccc(F)c(F)c1)C[C@]1(CCOc3cc(OCC(F)(F)F)ccc31)NC2=O` [II-67] stands 2.64 nM.
